Patent US20180265867A1, “NUCLEIC ACID MOLECULES WITH ENHANCED ACTIVITY” (priority 2015, published 2018)
d = 2'-deoxy (DNA); r = 2'-OH (RNA)

The substances below were run on MG63 cells (assay: Fluorescence / confocal microscopy of cellular distribution in MG63 cells). Conditions: fluorescently labelled, transfection reagent free.
Assay type: cell-based, human
Description: Cellular uptake experiments were performed by plating cells (1×10^4) in an 8 well chamber slide. At 70% confluency, the cells were transfected with 50 nM Cy3-cpRNA and incubated at 37° C. for 24 h. Control wells were left untreated. Each transfection was performed in triplicate. […] The slides were mounted using Vectashield mounting medium containing 4′, 6-diamidino-2-phenylindole (DAPI) (Vector Labs, Burlingame, Calif.) to stain the nuclei of cells.
MG63—human osteosarcoma cells were cultured in α-MEM (Sigma-Aldrich, Haverhill, UK) medium containing 10% FBS, 1% L-Glutamine, and 1% antibiotics (PeSt) at 37° C. with 5% CO2. One day prior to the siRNA treatment, 35,000 cells were plated per each well of a 24-well plate. On the experiment day, cells were replaced with 10% heat inactivated-FBS containing α-MEM medium with 1% L-Glutamine, and 1% antibiotics (PeSt). Fluorescently (Cy3) labelled CP-siRNA and nicked CP-siRNA having GAPDH targeting sequence (final concentration: 50 nM) was given to the each well. After 24 hours the cells were washed with PBS and fixed with 4% formaldehyde for 20 mins at room temperature and then washed twice with PBS. DAPI (1 ug/ml in PBS) was added to cells for 5 mins and then washed with PBS. The cells were then visualized in Nikon TiU at 20×+1.5× and analysed with the Nikon Imaging software.

Row | Substance | cellular distribution
1 | CP-siRNA: GAPDH CP-siRNA, sense SEQ ID NO: 26 with dT5, antisense SEQ ID NO: 27; Cy3 labelled for imaging (sense CCGAGCCACAUCGCUCAGATTTTT; antisense UCUGAGCGAUGUGGCUCGGTT; sense: sugars from the 5' end r19 d5, backbone not given here; antisense: sugars from the 5' end r19 d2, backbone not given here; Cy3 label) | perinuclear distribution
2 | nicked CP-siRNA: Nicked GAPDH CP-siRNA, sense SEQ ID NO: 28, nicked antisense sequences a and b SEQ ID NO: 29 and 30 (sense CCGAGCCACAUCGCUCAGATTTTT; antisense 1 UCUGAGCGAU; antisense 2 GUGGCUCGG; sense: sugars from the 5' end r19 d5, backbone not given here; antisense 1: RNA, backbone not given here; antisense 2: RNA, backbone not given here; further chemistry not fully specified) | some nuclear localization

The substances below were run on 3p or 5p miR34a target-site in 3′ UTR of Renilla luciferase (assay: Dual glo assay of miR34a strand selection in HCT116 cells). Conditions: 50 nM miRNA, 300 ng plasmid, RNAiMAX, 24 h.
Assay type: cell-based, human
Description: For all experiments RNAiMAX was used for transfection of both plasmid and miRNA in accordance with manufacturer's instructions, but with altered RNA and plasmid concentrations. For Dual glo assay, cells were co-transfected with 50 nM miRNA and 300 ng plasmid. For qPCR cells were transfected with 100 nM miRNA.
HCT116 cells were seeded 10000 cells per well in a 96 well plate and transfected with both plasmid and miRNA 24 hours later. All transfections were performed in triplicates. The plasmids used were the dual luciferase reporter plasmid with either a 3p or 5p miR34a target-site cloned into the 3′ UTR (denoted plasmid 3 or plasmid 5). After 24 hours 75 μl of Dual glo firefly substrate (Promega) was added to each well. 100 μl of cell-lysate was moved to a microtiter plate after 10 minutes of incubation and luminescence was measured and it was followed by addition of 75 μl of Stop glo Renilla substrate (Promega) to the same plate and luminescence was measured again after 10 minutes of incubation. The Renilla luminescence values were normalized against the firefly luminescence values and expressed as a percentage of the negative control, a scrambled non-functional miRNA.
Dual glo assay and RT-qPCR were performed to identify the degree of strand selection of the modified miRNA. First, we designed two different plasmids (psiCheck2 vector) such that miRNA target-sequence (3p or 5p) is cloned into the 3′-UTR of the Renilla luciferase gene (see FIG. 16) with firefly luciferase as the internal control to normalize the Renilla luciferase expression. We estimated the levels of the individual strand recruitment (3p or 5p) using the dual-glo luminesce assay. The target-sequence corresponds exactly to either the 3p or 5p strands, and a change in luminescence can be directly attributed to the gene silencing efficiency.
Four independent trials of dual glo assay were performed, with each of the samples in triplicates. Luminescence is shown as a percentage of the scrambled miRNA which serves as the negative control. Two different modifications were used on each of the strands of the miR34a (see Table 5). The miR34a was modified to make the 5p strand the guide strand by incorporating three deoxy thymidine residues at the 3′ end of the 3p strand (mod5a).

Row | Substance | strand selection (Dual glo luminescence)
3 | mod3b: miR34a with five deoxy thymidines added to 3′ end of 5p strand, SEQ ID NO: 20 and 36 (chain 1 CAAUCAGCAAGUAUACUGCCCU; chain 2 UGGCAGUGUCUUAGCUGGUUGUTTTTT; chain 1: RNA, backbone not given here; chain 2: sugars from the 5' end r22 d5, backbone not given here) | slight increase in strand selection but this was not statistically significant
4 | mod5b: miR34a with five deoxy thymidines added to 3′ end of 3p strand, SEQ ID NO: 38 and 21 (chain 1 CAAUCAGCAAGUAUACUGCCCUTTTTT; chain 2 UGGCAGUGUCUUAGCUGGUUGU; chain 1: sugars from the 5' end r22 d5, backbone not given here; chain 2: RNA, backbone not given here) | 3p strand being less chosen as the guide strand
5 | mod3a: miR34a with three deoxy thymidines added to 3′ end of 5p strand, SEQ ID NO: 20 and 35 (chain 1 CAAUCAGCAAGUAUACUGCCCU; chain 2 UGGCAGUGUCUUAGCUGGUUGUTTT; chain 1: RNA, backbone not given here; chain 2: sugars from the 5' end r22 d3, backbone not given here) | slight increase in strand selection but this was not statistically significant
6 | mod5a: miR34a with three deoxy thymidines added to 3′ end of 3p strand, SEQ ID NO: 37 and 21 (chain 1 CAAUCAGCAAGUAUACUGCCCUTTT; chain 2 UGGCAGUGUCUUAGCUGGUUGU; chain 1: sugars from the 5' end r22 d3, backbone not given here; chain 2: RNA, backbone not given here) | 3p strand being less chosen as the guide strand
